Test results taken from US12180193B2, “Accelerating fibrosarcoma protein degrading compounds and associated methods of use” (Arvinas Operations, Inc., priority 2020, dated 2024).

Key:
[1] = biological target: T1, BRAF V600E (Homo sapiens, UniProt P15056, V600E); assay: Cellular assay of target protein degradation, T-Rex 293 cells stably transfected with HA-BRAF_V600E (HA immunofluorescence, high content imaging); format: cell-based; conditions: T-Rex 293 HA-BRAF V600E; for DC50: half maximal degradation, read-out: BRaf V600E DC50; for Dmax: maximum degradation observed
T1 construct: expressed in transfected cells
Procedure, shortened: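 Read-out is anti-HA immunofluorescence quantified by high-content imaging, giving half-maximal degradation concentration (DC50) and maximum degradation (Dmax, percent of control). Cells expressed the construct under 1 ng/mL doxycycline and received compound (1 μM to 0.1 nM final, 0.1% DMSO) for 24 h at 37 °C.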

[2] = biological target: T2, BRAF G466V (Homo sapiens, UniProt P15056, G466V); assay: Cellular assay of target protein degradation, T-Rex 293 cells stably transfected with HA-BRAF G466V (HA immunofluorescence, high content imaging); format: cell-based; conditions: T-Rex 293 HA-BRAF G466V; for DC50: half maximal degradation, read-out: BRaf G466V DC50; for Dmax: maximum degradation observed
T2 construct: expressed in transfected cells
Procedure, shortened: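 First, stably transfected T-Rex 293 cells were plated with 0.75 ng/mL doxycycline and grown for 24 hours. Next, compound (final 30 nM to 3 pM, 0.1% DMSO) was added for another 24 hours at 37° C. Finally, cells were fixed, stained for HA and imaged.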

T2 sequence (P15056 whole entry G466V): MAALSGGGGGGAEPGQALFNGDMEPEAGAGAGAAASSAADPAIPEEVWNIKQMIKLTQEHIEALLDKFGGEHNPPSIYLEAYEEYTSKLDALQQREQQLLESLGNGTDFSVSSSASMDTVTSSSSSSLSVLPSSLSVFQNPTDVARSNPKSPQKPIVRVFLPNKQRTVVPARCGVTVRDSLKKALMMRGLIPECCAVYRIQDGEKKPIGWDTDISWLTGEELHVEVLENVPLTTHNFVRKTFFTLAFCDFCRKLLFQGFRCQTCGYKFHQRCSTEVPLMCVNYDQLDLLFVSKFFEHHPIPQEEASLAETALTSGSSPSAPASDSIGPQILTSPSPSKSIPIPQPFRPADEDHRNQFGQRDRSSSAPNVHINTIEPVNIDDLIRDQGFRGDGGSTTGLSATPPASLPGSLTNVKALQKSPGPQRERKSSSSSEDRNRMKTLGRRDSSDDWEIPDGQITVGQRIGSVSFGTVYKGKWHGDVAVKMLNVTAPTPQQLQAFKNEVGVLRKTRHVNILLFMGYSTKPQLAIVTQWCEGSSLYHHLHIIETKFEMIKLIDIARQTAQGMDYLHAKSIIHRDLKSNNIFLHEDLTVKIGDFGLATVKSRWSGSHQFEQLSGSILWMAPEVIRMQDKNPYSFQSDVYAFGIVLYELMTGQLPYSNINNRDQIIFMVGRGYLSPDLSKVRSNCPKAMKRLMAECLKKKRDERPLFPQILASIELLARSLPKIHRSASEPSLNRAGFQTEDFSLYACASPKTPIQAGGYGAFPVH
T1 sequence (P15056 whole entry V600E): as the sequence (P15056 whole entry G466V) above, with V466G, V600E counted along it

| DC50 [1] | DC50 [2] | Dmax [1] | Dmax [2] | Compound |
| --- | --- | --- | --- | --- |
| > 500 nM | > 30 nM | – | – | COc1ccc(NS(=O)(=O)N2CC[C@@H](F)C2)c(OC)c1C(=O)c1c[nH]c2ncc(-c3ccc(N4CCC(CN5CCC(c6ccc7c(c6)CN([C@H]6CCC(=O)NC6=O)C7=O)CC5)CC4)cc3)cc12 [Compound 274, (3R)-N-{3-[5-(4-{4-[(4-{2-[(3S)-2,6-dioxopiperidin-3-yl]-1-oxo-2,3-dihydro-1H-isoindol-5-yl}piperidin-1-yl)methyl]piperidin-1-yl}phenyl)-1H-pyrrolo [2,3-b]pyridine-3-carbonyl]-2,4-dimethoxyphenyl}-3-fluoropyrrolidine-1-sulfonamide] |
| > 500 nM | > 30 nM | – | – | COc1ccc(NS(=O)(=O)N2CC[C@@H](F)C2)c(OC)c1C(=O)c1c[nH]c2ncc(-c3ccc(N4CCC(CN5CCC(c6ccc7c(c6)CN(C6CCC(=O)NC6=O)C7=O)CC5)CC4)cc3)cc12 (stereo partly drawn) [Compound 275, (3R)-N-[3-(5-{4-[4-({4-[2-(2,6-dioxopiperidin-3-yl)-1-oxo-2,3-dihydro-1H-isoindol-5-yl]piperidin-1-yl}methyl)piperidin-1-yl]phenyl}-1H-pyrrolo[2,3-b]pyridine-3-carbonyl)-2,4-dimethoxyphenyl]-3-fluoropyrrolidine-1-sulfonamide] |
| < 5 nM | < 1 nM | 35 to 70% | 35 to 70% | CCc1c(NS(=O)(=O)N2CC[C@@H](F)C2)ccc(F)c1C(=O)c1c[nH]c2ncc(-c3ccc(N4CCC(CN5CCC(c6ccc7c(c6)CN(C6CCC(=O)NC6=O)C7=O)CC5)CC4)cc3)cc12 (stereo partly drawn) [Compound 276, (3R)-N-[3-(5-{4-[4-({4-[2-(2,6-dioxopiperidin-3-yl)-1-oxo-2,3-dihydro-1H-isoindol-5-yl]piperidin-1-yl}methyl)piperidin-1-yl]phenyl}-1H-pyrrolo[2,3-b]pyridine-3-carbonyl)-2-ethyl-4-fluorophenyl]-3-fluoropyrrolidine-1-sulfonamide] |
| 5 to 50 nM | 10 to 30 nM | < 35% | > 70% | C[C@@H]1CC[C@@H](C)N1S(=O)(=O)Nc1ccc(F)c(C(=O)c2c[nH]c3ncc(-c4ccc(N5CCC(CN6CCC(c7ccc8c(c7)CN([C@H]7CCC(=O)NC7=O)C8=O)CC6)CC5)cc4)cc23)c1F [Compound 277, (2R,5R)-N-{3-[5-(4-{4-[(4-{2-[(3S)-2,6-dioxopiperidin-3-yl]-1-oxo-2,3-dihydro-1H-isoindol-5-yl}piperidin-1-yl)methyl]piperidin-1-yl}phenyl)-1H-pyrrolo [2,3-b]pyridine-3-carbonyl]-2,4-difluorophenyl}-2,5-dimethylpyrrolidine-1-sulfonamide] |
| 5 to 50 nM | 1 to 10 nM | 35 to 70% | 35 to 70% | O=C1CC[C@H](N2Cc3cc(C4CCN(CC5CCN(c6ccc(-c7cnc8[nH]cc(C(=O)c9c(F)ccc(NS(=O)(=O)N%10CC[C@@H](O)C%10)c9F)c8c7)cc6)CC5)CC4)ccc3C2=O)C(=O)N1 [Compound 278, (3R)-N-{3-[5-(4-{4-[(4-{2-[(3S)-2,6-dioxopiperidin-3-yl]-1-oxo-2,3-dihydro-1H-isoindol-5-yl}piperidin-1-yl)methyl]piperidin-1-yl}phenyl)-1H-pyrrolo [2,3-b]pyridine-3-carbonyl]-2,4-difluorophenyl}-3-hydroxypyrrolidine-1-sulfonamide] |

The remaining lines, values behind:

| Compound | DC50 [1] | DC50 [2] | Dmax [1] | Dmax [2] |
| --- | --- | --- | --- | --- |
| CCc1ccc(NS(=O)(=O)N2CC[C@@H](F)C2)c(F)c1C(=O)c1c[nH]c2ncc(-c3ccc(N4CCC(CN5CCC(c6ccc7c(c6)CN([C@H]6CCC(=O)NC6=O)C7=O)CC5)CC4)cc3)cc12 [Compound 265, (3R)-N-{3-[5-(4-{4-[(4-{2-[(3S)-2,6-dioxopiperidin-3-yl]-1-oxo-2,3-dihydro-1H-isoindol-5-yl}piperidin-1-yl)methyl]piperidin-1-yl}phenyl)-1H-pyrrolo [2,3-b]pyridine-3-carbonyl]-4-ethyl-2-fluorophenyl}-3-fluoropyrrolidine-1-sulfonamide] | > 500 nM | > 30 nM | – | – |
| CCc1ccc(NS(=O)(=O)N2CC[C@@H](F)C2)c(F)c1C(=O)c1c[nH]c2ncc(-c3ccc(N4CCC(CN5CCC(c6ccc7c(c6)CN(C6CCC(=O)NC6=O)C7=O)CC5)CC4)cc3)cc12 (stereo partly drawn) [Compound 266, (3R)-N-[3-(5-{4-[4-({4-[2-(2,6-dioxopiperidin-3-yl)-1-oxo-2,3-dihydro-1H-isoindol-5-yl]piperidin-1-yl}methyl)piperidin-1-yl]phenyl}-1H-pyrrolo[2,3-b]pyridine-3-carbonyl)-4-ethyl-2-fluorophenyl]-3-fluoropyrrolidine-1-sulfonamide] | > 500 nM | > 30 nM | – | – |
| O=C1CC[C@H](N2Cc3cc(C4CCN(CC5CCN(c6ccc(-c7cnc8[nH]cc(C(=O)c9c(Cl)ccc(NS(=O)(=O)N%10CC[C@@H](F)C%10)c9Cl)c8c7)cc6)CC5)CC4)ccc3C2=O)C(=O)N1 [Compound 267, (3R)-N-{2,4-dichloro-3-[5-(4-{4-[(4-{2-[(3S)-2,6-dioxopiperidin-3-yl]-1-oxo-2,3-dihydro-1H-isoindol-5-yl}piperidin-1-yl)methyl]piperidin-1-yl}phenyl)-1H-pyrrolo [2,3-b]pyridine-3-carbonyl]phenyl}-3-fluoropyrrolidine-1-sulfonamide] | 5 to 50 nM | 1 to 10 nM | 35 to 70% | 35 to 70% |
| O=C1CCC(N2Cc3cc(C4CCN(CC5CCN(c6ccc(-c7cnc8[nH]cc(C(=O)c9c(Cl)ccc(NS(=O)(=O)N%10CC[C@@H](F)C%10)c9Cl)c8c7)cc6)CC5)CC4)ccc3C2=O)C(=O)N1 (stereo partly drawn) [Compound 268, (3R)-N-[2,4-dichloro-3-(5-{4-[4-({4-[2-(2,6-dioxopiperidin-3-yl)-1-oxo-2,3-dihydro-1H-isoindol-5-yl]piperidin-1-yl}methyl)piperidin-1-yl]phenyl}-1H-pyrrolo [2,3-b]pyridine-3-carbonyl)phenyl]-3-fluoropyrrolidine-1-sulfonamide] | 50 to 500 nM | 1 to 10 nM | 35 to 70% | < 35% |
| COc1ccc(NS(=O)(=O)N2CC[C@@H](F)C2)c(F)c1C(=O)c1c[nH]c2ncc(-c3ccc(N4CCC(CN5CCC(c6ccc7c(c6)CN(C6CCC(=O)NC6=O)C7=O)CC5)CC4)cc3)cc12 (stereo partly drawn) [Compound 269, (3R)-N-[3-(5-{4-[4-({4-[2-(2,6-dioxopiperidin-3-yl)-1-oxo-2,3-dihydro-1H-isoindol-5-yl]piperidin-1-yl}methyl)piperidin-1-yl]phenyl}-1H-pyrrolo[2,3-b]pyridine-3-carbonyl)-2-fluoro-4-methoxyphenyl]-3-fluoropyrrolidine-1-sulfonamide] | 5 to 50 nM | 1 to 10 nM | 35 to 70% | 35 to 70% |
| C[C@H]1[C@H](F)CCN1S(=O)(=O)Nc1ccc(F)c(C(=O)c2c[nH]c3ncc(-c4ccc(N5CCC(CN6CCC(c7ccc8c(c7)CN([C@H]7CCC(=O)NC7=O)C8=O)CC6)CC5)cc4)cc23)c1F [Compound 270, (2S,3R)-N-{3-[5-(4-{4-[(4-{2-[(3S)-2,6-dioxopiperidin-3-yl]-1-oxo-2,3-dihydro-1H-isoindol-5-yl}piperidin-1-yl)methyl]piperidin-1-yl}phenyl)-1H-pyrrolo [2,3-b]pyridine-3-carbonyl]-2,4-difluorophenyl}-3-fluoro-2-methylpyrrolidine-1-sulfonamide] | 5 to 50 nM | 1 to 10 nM | 35 to 70% | > 70% |
| C[C@H]1[C@H](F)CCN1S(=O)(=O)Nc1ccc(F)c(C(=O)c2c[nH]c3ncc(-c4ccc(N5CCC(CN6CCC(c7ccc8c(c7)CN(C7CCC(=O)NC7=O)C8=O)CC6)CC5)cc4)cc23)c1F (stereo partly drawn) [Compound 271, (2S,3R)-N-[3-(5-{4-[4-({4-[2-(2,6-dioxopiperidin-3-yl)-1-oxo-2,3-dihydro-1H-isoindol-5-yl]piperidin-1-yl}methyl)piperidin-1-yl]phenyl}-1H-pyrrolo[2,3-b]pyridine-3-carbonyl)-2,4-difluorophenyl]-3-fluoro-2-methylpyrrolidine-1-sulfonamide] | 5 to 50 nM | 1 to 10 nM | 35 to 70% | > 70% |
| O=C1CC[C@H](N2Cc3cc(C4CCN(CC5CCN(c6ccc(-c7cnc8[nH]cc(C(=O)c9c(F)ccc(NS(=O)(=O)N%10CC[C@@H](F)C%10)c9C(F)(F)F)c8c7)cc6)CC5)CC4)ccc3C2=O)C(=O)N1 [Compound 272, (3R)-N-{3-[5-(4-{4-[(4-{2-[(3S)-2,6-dioxopiperidin-3-yl]-1-oxo-2,3-dihydro-1H-isoindol-5-yl}piperidin-1-yl)methyl]piperidin-1-yl}phenyl)-1H-pyrrolo [2,3-b]pyridine-3-carbonyl]-4-fluoro-2-(trifluoromethyl)phenyl}-3-fluoropyrrolidine-1-sulfonamide] | 50 to 500 nM | 1 to 10 nM | 35 to 70% | 35 to 70% |
| O=C1CCC(N2Cc3cc(C4CCN(CC5CCN(c6ccc(-c7cnc8[nH]cc(C(=O)c9c(F)ccc(NS(=O)(=O)N%10CC[C@@H](F)C%10)c9C(F)(F)F)c8c7)cc6)CC5)CC4)ccc3C2=O)C(=O)N1 (stereo partly drawn) [Compound 273, (3R)-N-[3-(5-{4-[4-({4-[2-(2,6-dioxopiperidin-3-yl)-1-oxo-2,3-dihydro-1H-isoindol-5-yl]piperidin-1-yl}methyl)piperidin-1-yl]phenyl}-1H-pyrrolo[2,3-b]pyridine-3-carbonyl)-4-fluoro-2-(trifluoromethyl)phenyl]-3-fluoropyrrolidine-1-sulfonamide] | > 500 nM | 10 to 30 nM | 35 to 70% | 35 to 70% |
